Source: patent US20240285670A1, “THERAPEUTIC TREATMENT OF TUMORS BY BLOCKING THE HEME SYNTHESIS-EXPORT AXIS” (Università degli Studi di Torino, priority 2021, published 2024)

Tests used:
BTECs = assay: Wound healing assay (BTECs migration); assay type: cell-based, human; details: FLVCR1a-silenced vs scramble shRNA BTECs
Source text: (A) BTECs counting, as a readout of cell proliferation, at the indicated time points. […] Data represent mean±SEM, n=4. For statistical analyses, a two-way analysis of variance was used, followed by the Bonferroni correction for multiple group comparisons; ***p<0.001. (B) Quantification of BTECs migration rate in wound-healing assay. […] Data represent mean±SEM, n=32. For statistical analyses, a nonparametric unpaired Mann-Whitney test was used; ***p<0.001. (C) In vitro tubulogenesis assay on matrigel. […] The number of nodes counted within the neo-formed vascular networks is shown. Data represent mean±SEM; n=10. For statistical analyses, a nonparametric unpaired Mann-Whitney test was used; **p<0.01.
To evaluate cell motility, BTECs were grown to confluence in 24-well plates coated with 1% Gelatin from bovine skin (Sigma-Aldrich, St. Louis, MO USA, catalog n° G9391). […] Cell migration into the wound was monitored using a Nikon Eclipse T-E microscope with a 4× objective. […] Three separate wells were used for each condition and, in each well, at least six fields were analysed for each condition. Cell migration into the wound was assessed using Fiji open source software (Schindelin et al., 2012) (http://fiji.sc/ RRID:SCR_002285), by measuring the distance between the two sides of the wound at each time point. Data were expressed as percentage of cell migration. […]

SKCO1 cells = assay: SKCO1 xenograft tumor model in NSG mice; assay type: in vivo
Source text: (A) Proliferation of Caco2 cells assessed by crystal violet staining at the indicated days; bar=1000 μm. […] Staining quantification is reported in the bar graph as percentage of crystal violet stained area. Data represent mean±SEM, n=4. For statistical analyses, a two-way analysis of variance was used, followed by the Bonferroni correction for multiple group comparisons; *=p<0.05, ***=p<0.001. (B) Caco2 cells viability the day of plating (day 0) and three days after plaiting (day 3). The measure is considered a readout of cell proliferation. […] Data represent mean±SEM, n=3 wells. For statistical analyses, a two-way analysis of variance was used, followed by the Bonferroni correction for multiple group comparisons; *=p<0.05, **=p<0.01. (C, D, E) Representative flow cytometric analyses of apoptosis in synchronized Caco2 (C), SKCO1 (D) and C80 (E) cells. […] Data represent mean±SEM, n=4 wells pooled from two independent experiments. […]
For the SKCO1 xenograft model, 8-week-old NOD SCID gamma (NSG) male mice (The Jackson Laboratory, Bar Harbor, ME USA; NOD.Cg-Prkdc^scid Il2rg^tm1Wjl/SzJ, catalog n° 005557, RRID: IMSR_JAX:005557) were housed in a temperature-controlled, pathogen-free environment and used for experimentation. […] Tumor length (L) and width (W) were measured and tumor volume (mm^3) was calculated using the following formula: (L×W^2)/2. […]

## FLVCR1a shRNA: shRNA specifically down-regulating FLVCR1a without targeting FLVCR1b; pLKO.1 lentiviral clone TRCN0000059599, antisense SEQ ID No.: 2 (antisense TTGCTAATGATGCTGTACTGG; sense CCAGTACAGCATCATTAGCAA)
BTECs
  migratory rate: reduction of the migratory rate
SKCO1 cells; subcutaneous injection of FLVCR1a-silenced vs scramble SKCO1 cells in NSG mice, 11 weeks
  tumor size (tumor volume): smaller tumors
SKCO1 cells; tumors from FLVCR1a-silenced vs control SKCO1 cells in NSG mice
  tumor histology (hematoxylin and eosin): higher amount of stroma (mostly fibrous tissue) and, in general, lower cellularity
